From PubChem BioAssay AID1996
Converted amounts (≈) assume the structure as drawn.

Settings: buffer; pH 7.4; 200.0 µM

SMILES	solubility kinetic [µg/mL]
Cc1ccc(OCCNS(=O)(=O)c2ccc(Cl)cc2)cc1	5.6 (≈ 17.2 µM)
Cc1noc(NS(=O)(=O)c2ccc(NC(=O)COc3ccc(C#N)cc3)cc2)c1C	> 64
Cc1cccc(N2C(=O)c3ccccc3C2=O)n1	> 35.7
CC(=O)Nc1ccc(C(=O)COC(=O)C2CCCCC2)c(F)c1	10.7 (≈ 33.3 µM)
CC(=O)Nc1cc2c3c(c1)CCN3C(=O)CC2	> 34.5
CC(C)CNC(=O)CN1C(=O)NC2(CCc3ccccc32)C1=O (stereo not given)	> 47.3
Cc1ccc(C)c(CSCC(=O)NCc2cccs2)c1	41.8 (≈ 137 µM)
NC(=O)C1CCN(C(=O)c2ccc3ccccc3c2)CC1	> 42.4
CC(Cl)C(=O)Nc1c2c(nn1-c1ccccc1)CSC2 (stereo not given)	> 46.2
CCn1cc(CCC(=O)NC2CCCC2)c2ccccc21	40.4 (≈ 142 µM)
S=C(c1ccc(OCc2ccccc2)cc1)N1CCCC1	< 0.6
O=C(CN1CCCCCC1)Nc1ccc(Br)cn1	33.7 (≈ 108 µM)
OC(CN1CCC(Cc2ccccc2)CC1)c1ccccc1 (stereo not given)	> 44.3
O=c1[nH]c2cc(NCCO)c([N+](=O)[O-])cc2[nH]1	> 35.7
C#CCOc1ccc(/C=C2/C(=O)N(c3cccc(C(=O)O)c3)N=C2C)cc1OC	> 58.6
O=c1c2ccccc2nc2n1CCCN2	> 30.2
COc1ccc(C2Nc3ccccc3C(=O)N2Cc2ccccc2)cc1OC (stereo not given)	< 0.4
CC(C)CNC(=O)CSc1nnc2ccccn12	> 39.7
CCCCN(Cc1cc2cc(C)ccc2[nH]c1=O)C(=O)c1ccccn1	> 52.4
COc1ccc(CCN)cc1O.Cl	> 30.6
CC(=O)c1cccc(NC(=O)Nc2ccccc2)c1	10.5 (≈ 41.3 µM)
COCCNC(=O)Cn1cc(C(=O)c2ccco2)c2ccccc21	> 49
CCC(CC)C(=O)NCc1cccnc1	> 30.9
COc1cccc(CNCC(=O)NC(=O)NC2CCCC2)c1.O=C(O)C(=O)O	> 59.3

SMILES	solubility kinetic [µg/mL]
CC1CC(Nc2ccccc2)c2ccccc2N1C(=O)c1ccco1 (stereo not given)	13.2 (≈ 39.7 µM)
Cc1csc(NC(=O)Cc2ccccc2Cl)n1	34.4 (≈ 129 µM)
COC(=O)c1ccc(C(=O)Nc2ccc3c(c2)C(=O)NC3=O)cc1	< 0.3
Clc1nc(CN2CCCCC2)nc2sc3c(c12)CCC3	> 46.2
CCOc1ccc(OCC)c(S(=O)(=O)n2cc(C)nc2CC)c1	10.6 (≈ 31.3 µM)
O=C(Nc1cc(=O)[nH]c(=O)[nH]1)c1cccc(C(F)(F)F)c1	> 44.9
O=C(Nc1nc(-c2cccnc2)cs1)c1ccccc1[N+](=O)[O-]	0.7 (≈ 2.15 µM)
CSc1ncccc1C(=O)OCC(=O)NC12CC3CC(CC(C3)C1)C2	21.8 (≈ 60.5 µM)
Cn1nccc1NC(=O)Nc1ccc(Cl)cc1	> 37.6
COc1ccc(CCNC(=O)c2ccc(C)s2)cc1OC	> 45.8
Cc1ccc(C(=O)NCC(=O)Nc2ccc3c(c2)CCC3)cc1	3 (≈ 9.73 µM)
OCc1nc2ccccc2n1CCCCOc1ccccc1	> 44.5
N#CCSc1ncnc2ccccc12	28.1 (≈ 140 µM)
Cc1cc(C)c(C#N)c(SCc2ccc([N+](=O)[O-])cc2)n1	< 0.2
COc1ccc(CN2CCc3c([nH]c4ccccc34)C2)c(OC)c1C	35.2 (≈ 105 µM)
[Br-].c1ccc(-c2c[n+]3c(n2-c2ccccc2)CCC3)cc1	> 51.2
Cc1ccc(SCCC(=O)NCc2ccccn2)cc1	> 43
N#Cc1ccc(OCc2ccc(C(=O)O)o2)cc1	> 36.5
CC(=O)Oc1cccc(N2C(=O)C3C4C=CC(CC4)C3C2=O)c1 (stereo not given)	32.8 (≈ 105 µM)
Cc1ccc(N=CNc2ccc(C)cc2C)c(C)c1	35.2 (≈ 139 µM)
O=C(CC1OC(=O)c2ccccc21)Nc1cc(Cl)ccc1N1CCOCC1 (stereo not given)	5.8 (≈ 15 µM)
CNC(=O)O/N=C(\N)Cc1csc2ccc(Cl)cc12	44.1 (≈ 148 µM)
N#C/C(=C\c1ccccc1Br)C(=O)NC1CC1	> 43.7
Cn1cnc(S(=O)(=O)Nc2ccccc2C(=O)NCC2CC2)c1	> 50.2

SMILES	solubility kinetic [µg/mL]
CC(=O)Oc1ccc2nc(/C=C/c3ccccc3)oc(=O)c2c1	0.9 (≈ 2.93 µM)
NC(=O)c1ccc(NC(=O)Cc2cccs2)cc1	32.9 (≈ 126 µM)
CN1C(=O)CSC1=Nc1ccc(Br)cc1	33.3 (≈ 117 µM)
CCN(CC)CC.COc1ccc(-n2c(=S)[nH]c3c(sc(=S)n3-c3ccccc3)c2=O)c(OC)c1	> 64.4
O=C(NCC(=O)N1CC=C(c2ccccc2)CC1)c1ccc(OC(F)F)cc1	8.2 (≈ 21.2 µM)
Cc1ccc(CN2CCN(C(=O)c3cccc4ccccc34)CC2)cc1.O=C(O)C(=O)O	59.6
O=C(CSc1ccc(Cl)cc1)Nc1ccc(C2SCCS2)cc1	1 (≈ 2.62 µM)
Nc1nc(Nc2cccc(F)c2)nc(N2CCOCC2)c1[N+](=O)[O-]	2.9 (≈ 8.67 µM)
CSCC(=O)Nc1nc(-c2ccc3c(c2)OCCO3)cs1	5.2 (≈ 16.1 µM)
NC(=O)CN1C(=O)C(=O)N(Cc2ccc(Cl)cc2)C1=O	> 44.4
CN1CCc2cccc3c2[C@@H]1Cc1ccc(O)c(O)c1-3.Cl	12.5
O=C(COc1ccccc1Br)Nc1ccc2c(c1)OCCCO2	1.6 (≈ 4.23 µM)
Cc1ccc(C)c(NC(=S)N2CCCC2)c1	> 35.2
CCOC(=O)c1c(NC(=O)Nc2ccc(C)cc2)sc2c1CCN(C)C2	1.5 (≈ 4.02 µM)
CC1=C(C(=O)NCc2ccc(Cl)cc2)C2(CCC(C)CC2)OC1=O (stereo not given)	4.3 (≈ 12.4 µM)
CCOC(=O)C1(CCOC)CCN(Cc2ccncc2)CC1	> 46
Cc1cc2c(SCC(=O)NC3CCCC3)ncnc2s1	30.2 (≈ 98.2 µM)
Cc1ccc(S(=O)(=O)N2CCN(CC(=O)N3CCCC3)CC2)c(C)c1	> 54.8
Cc1ccccc1NC(=O)C1CC(=O)N(Cc2ccccc2)C1 (stereo not given)	> 46.3
COc1ccc(NC(=O)c2ccco2)cc1NC(=O)c1cccc(F)c1	< 0.4
COc1cccc(NC(=O)CN(C)CC(=O)NCc2ccc(F)cc2)c1	> 53.9
COc1cccc(NC(=O)c2ccccc2C(F)(F)F)c1	> 44.3
Cc1cccnc1Oc1ncccc1N	> 30.2
CC(NC(=O)COC(=O)c1ccccc1F)C1CC2CCC1C2 (stereo not given)	> 47.9

SMILES	solubility kinetic [µg/mL]
Cc1cc(NCC2CCCCC2)nc2ccccc12	21.4 (≈ 84.1 µM)
COc1cccc2c1OCC(C(=O)Nc1nccs1)=C2	18.2 (≈ 63.1 µM)
Cc1cccc(C)c1NC(=S)NC(=O)c1ccc(Br)o1	4.1 (≈ 11.6 µM)
COc1ccc(CNC(=O)c2c(O)c3ccccc3n(C)c2=O)cc1	< 0.4
N#Cc1ccc(OCC(=O)NCCN2CCOCC2)cc1	> 43.4
COC(=O)c1cc(COC(=O)c2nc3nc(C)cc(C)n3n2)oc1C	> 51.6
O=C(CCS(=O)(=O)Cc1ccccc1)NCCc1ccccc1	11.9 (≈ 35.9 µM)
CCC(CC)C(=O)c1c[nH]c(C(=O)NCc2cccs2)c1	4.4 (≈ 14.5 µM)
COc1cccc(NC(=O)Nc2nc(SC(C)(C)C)ns2)c1	1.1 (≈ 3.25 µM)
Cc1cc(C(=O)CCC(=O)Nc2ncccc2O)c(C)s1	> 45.7
Cc1cnc(C(=O)NC2CCSc3ccccc32)cn1 (stereo not given)	26.2 (≈ 91.8 µM)
Cc1cccc(C)c1NC(=O)c1cnccn1	24.8 (≈ 109 µM)
CC(NCC(=O)NCC(=O)Nc1ccc(F)cc1)c1cccc(C(F)(F)F)c1 (stereo not given)	> 59.6
O=C(O)CCc1ccc(-c2cccs2)n1CCc1ccccc1	> 48.8
O=C(CNS(=O)(=O)c1ccc(Br)cc1)Nc1ccc2c(c1)OCCO2	8.7 (≈ 20.4 µM)
CNCc1c(OCc2ccccc2)ccc2ccccc12.Cl	44.9
COc1ccc(OC)c(S(=O)(=O)NC2CCCCNC2=O)c1 (stereo not given)	> 49.3
CC(=O)Nc1ccc(OCCOc2ccccc2C(C)=O)cc1	> 47
CCOc1ccccc1C(=O)NCC(=O)N(C)Cc1cccnc1	44.8 (≈ 137 µM)
COc1ccc(NC(=O)Nc2cccc3ccccc23)cc1OC	0.4 (≈ 1.24 µM)
Cc1[nH]c2c(ccc3cccnc32)c1C	19.4 (≈ 98.9 µM)
Cc1nnc(SCC(=O)NCC2CCCO2)n1Cc1ccccc1 (stereo not given)	> 52
O=C1C2C3C=CC(CC3)C2C(=O)N1c1ccccc1 (stereo not given)	25.9 (≈ 102 µM)
Cc1ccc(NC(=O)c2cnccn2)cc1	> 32

SMILES	solubility kinetic [µg/mL]
O=S(=O)(Cc1cc(Cl)nc(-c2cccnc2)n1)c1ccccc1	40.7 (≈ 118 µM)
O=C1OC(N2C(=O)CC[C@H]2C(=O)NCC2CCCO2)c2ccccc21 (stereo not given in full)	> 51.7
Cc1ccc2c(c1)C1C3CCC(C3)C1S(=O)N2 (stereo not given)	> 37.1
O=C(Cc1ccccc1)Oc1ccc([N+](=O)[O-])cc1	> 38.6
COc1ccc(CNc2ncc(-c3ccccc3)n2C)cc1	28.6 (≈ 97.5 µM)
COCCNC(=O)C(=O)Nc1cc2c3c(c1)C(C)C(=O)N3CCC2 (stereo not given)	48.7 (≈ 147 µM)
CC(NC(=O)Cn1cc(C(F)(F)F)ccc1=O)c1ccc(F)cc1 (stereo not given)	23.5 (≈ 68.7 µM)
O=C(CNCc1ccc(F)cc1)Nc1cc(S(=O)(=O)N2CCOCC2)ccc1Cl	8.4 (≈ 19 µM)
O=S(=O)(NC1=NCCCCC1)c1ccccc1Cl	> 43
Cc1ccnc(N2CCC(C(=O)Nc3ccc4c(c3)OCCO4)CC2)n1	13.6 (≈ 38.4 µM)
COc1ccc(C(=O)Nc2ccc(CN3CCS(=O)(=O)CC3)cc2)cc1	1.3 (≈ 3.47 µM)
O=C(NCc1ccccc1)NC(=O)c1ccccc1F	21.1 (≈ 77.5 µM)
CN1CCC(N(C)C(=O)c2cccc(S(=O)(=O)N3CCc4ccccc43)c2)CC1	> 62
Cc1ccc(S(=O)(=O)N2CCN(c3ccc([N+](=O)[O-])cn3)CC2)cc1	< 0.2
CC(C)N=c1cc2n(-c3ccc(Cl)cc3)c3ccccc3nc-2cc1Nc1ccc(Cl)cc1	0.3 (≈ 0.634 µM)
O=C(NCC1CCCCC1)c1cc([N+](=O)[O-])ccc1Cl	8 (≈ 27 µM)
O=S(=O)(NCCC1CC1(Cl)Cl)c1ccc(Cl)cc1 (stereo not given)	45.9 (≈ 140 µM)
N#CC(C#N)=Cc1ccc(OCC(=O)N2CCOCC2)cc1	> 44.6
O=C(NCC1CCCO1)c1ccc(N2C(=O)C3CCCCC3C2=O)cc1 (stereo not given)	44.9 (≈ 126 µM)
Cc1cc(C(=O)COc2ccc([N+](=O)[O-])cc2)c(C)n1C1CC1	2.2 (≈ 7 µM)
Cn1c(N)c(Br)c(-c2ccc(F)cc2)c(C#N)c1=O	8 (≈ 24.8 µM)
CCOC(=O)C(NCCOC)(NC(C)=O)C(F)(F)F (stereo not given)	> 42.9
Cc1cc(C)nc(NC(=O)c2ccc(C)o2)n1	> 34.7
CCOC(=O)C1CCN(C(=O)COC(=O)c2ccccc2OCC)CC1	> 54.5
